# Data from US20230293526A1, “METHOD FOR TREATING CANCER WITH A REVERSE TRANSCRIPTASE INHIBITOR” (PrimeFour Therapeutics, Inc., priority 2020, published 2023).
# Assays:
# human LINE-1 = assay: Human LINE-1 (L1) retrotransposition dual-luciferase reporter assay in HeLa cells; assay type: cell-based; conditions: Homo sapiens, HeLa, 72 h, read-out: Human LINE-1 IC50 (Human L1 activity inhibition)
# Description: Representative compounds were tested for inhibition of retrotransposition activity of human LINE-1 (L1) retrotransposition reporter assay in HeLa cells according to the following procedure.
# Human Cervical Adenocarcinoma Cells (HeLa) were cultured in Dulbecco's Modified Eagle's Medium (DMEM) containing 4500 mg/L glucose, L-glutamine, sodium pyruvate and sodium bicarbonate, supplemented with 10% of heat inactivated fetal bovine serum (FBS). Cells were grown at 37° C. in an atmosphere of 5% CO2. The dual luciferase-encoding plasmid pYX017 was provided by Prof Wenfeng An (Xie, et al., 2011, Nucleic Acids Res).
# The reporter assay was performed in 96-well white, optical bottom plates (Thermo Fisher, 165306). 24 hours prior to transfection, HeLa cells were seeded in a density of 2,500 cells per well, in 50 μL of DMEM, 10% FBS media volume. Cells were incubated at 37° C. in an atmosphere of 5% CO2. Seeding was optimized to achieve approximately 30% cell confluency on the day of transfection. A transfection mix was prepared by combining transfection reagent FuGENE® HD (Promega, E2311) and plasmid DNA (100 ng per well) in a 3:1 ratio, in OpiMEM media (Thermo Fisher, 31985062). Next, 5 μL of the transfection mix was combined with 20 μL of DMEM, 10% FBS media, and 25 μL of this mix was added into each well of an assay plate. In each assay plate one column remained untransfected to serve as a blank luminescence signal.
# Serial dilution of test compounds was performed in DMSO and transferred to medium. Next, 25 μL of media-diluted compounds series were transferred to an assay plate containing cells and transfection media. The final concentration of DMSO in treated wells was 0.2%. Serial dilutions of compounds were added to an assay plate immediately after transfection. Compounds were tested in triplicates. The assay plate was then incubated with transfection reagent and compounds at 37° C. in an atmosphere of 5% CO2 for 72 hours.
# Luciferase reporter activity was quantified with the Dual-Luciferase® Reporter Assay System (Promega) following the manufacturer's manual, with a passive lysis buffer volume increased to 30 μL and lysis incubation time increased to 20 min at room temperature with gentle shaking, to ensure complete cell lysis. Luminescence was measured using a SpectraMax i3×Multi-Mode Microplate Reader, with integration times of 100 ms and 10 ms applied to measure FLuc and RLuc signals, respectively. Relative LNE-1 activity was calculated as Firefly signal/Renilla signal*10,000. In order to determine IC50 values for each compound, dose response data were fit to a logistic using non-linear regression.
# cancer cell lines = assay: Cancer cell proliferation activity of representative nucleosides, CellTiterGlo 72 h (Example 7, Tables 8 and 9); assay type: cell-based
# Procedure, shortened: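 Cancer cell lines seeded and incubated at 37° C overnight, then exposed to nucleosides (final DMSO 0.1%) for 72 h at 37° C with 5% or 10% CO2. Viability read by CellTiterGlo luminescence and normalized to 0.1% DMSO (100%) and 10 μM staurosporine (0%) controls.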
smiles,measurement,setting,value
"Nc1nc(=O)n([C@@H]2C=C[C@H](CO)O2)cc1F [Elvucitabine, reference compound]",IC50,human LINE-1,0.092 µM
same,IC50,"cancer cell lines; 72 h, 5637, 72 h (Table 9)",> 50 µM
same,IC50,"cancer cell lines; 72 h, CLS439, 72 h (Table 9)",> 50 µM
same,IC50,"cancer cell lines; 72 h, HS729, 72 h (Table 9)",> 50 µM
same,IC50,"cancer cell lines; 72 h, J82, 72 h (Table 9)",> 50 µM
same,IC50,"cancer cell lines; 72 h, JAR, 72 h (Table 9)",> 50 µM
same,IC50,"cancer cell lines; 72 h, MT3, 72 h (Table 9)",> 50 µM
same,IC50,"cancer cell lines; 72 h, PC3, 72 h (Table 9)",> 50 µM
same,IC50,"cancer cell lines; 72 h, RD, 72 h (Table 9)",> 50 µM
same,IC50,"cancer cell lines; 72 h, T24, 72 h (Table 9)",> 50 µM
same,IC50,"cancer cell lines; Homo sapiens, 22Rv1, 72 h, 22RV1, 72 h (Table 9)",> 50 µM
same,IC50,"cancer cell lines; Homo sapiens, 786-0, 72 h, 786O, 72 h (Table 9)",> 50 µM
same,IC50,"cancer cell lines; Homo sapiens, A204, 72 h, A204, 72 h (Table 9)",0.41 µM
same,IC50,"cancer cell lines; Homo sapiens, A549, 72 h, A549, 72 h (Table 9)",> 50 µM
same,IC50,"cancer cell lines; Homo sapiens, A673, 72 h, A673, 72 h (Table 9)",> 50 µM
same,IC50,"cancer cell lines; Homo sapiens, A2780, 72 h, A2780, 72 h (Table 9)",> 50 µM
same,IC50,"cancer cell lines; Homo sapiens, A-375, 72 h, A375, 72 h (Table 9)",> 50 µM
same,IC50,"cancer cell lines; Homo sapiens, A-431, 72 h, A431, 72 h (Table 9)",17.1 µM
same,IC50,"cancer cell lines; Homo sapiens, ACHN, 72 h, 72 h (Table 9)",1.87 µM
same,IC50,"cancer cell lines; Homo sapiens, ASPC1, 72 h, ASPC1, 72 h (Table 9)",2.46 µM
same,IC50,"cancer cell lines; Homo sapiens, BT-20, 72 h, BT20, 72 h (Table 9)",> 50 µM
same,IC50,"cancer cell lines; Homo sapiens, BXPC-3, 72 h, BXPC3, 72 h (Table 9)",> 50 µM
same,IC50,"cancer cell lines; Homo sapiens, C-33-A, 72 h, C33A, 72 h (Table 9)",> 50 µM
same,IC50,"cancer cell lines; Homo sapiens, CAKI-1, 72 h, CAKI1, 72 h (Table 9)",2.95 µM
same,IC50,"cancer cell lines; Homo sapiens, COLO 205, 72 h, COLO205, 72 h (Table 9)",> 50 µM
same,IC50,"cancer cell lines; Homo sapiens, COLO-678, 72 h, COLO678, 72 h (Table 9)",> 50 µM
same,IC50,"cancer cell lines; Homo sapiens, Ca-Ski, 72 h, CASKI, 72 h (Table 9)",> 50 µM
same,IC50,"cancer cell lines; Homo sapiens, Caco-2, 72 h, CACO2, 72 h (Table 9)",> 50 µM
same,IC50,"cancer cell lines; Homo sapiens, Calu-6, 72 h, CALU6, 72 h (Table 9)",> 50 µM
same,IC50,"cancer cell lines; Homo sapiens, DLD-1, 72 h, DLD1, 72 h (Table 9)",> 50 µM
same,IC50,"cancer cell lines; Homo sapiens, DU-145, 72 h, DU145, 72 h (Table 9)",1.41 µM
same,IC50,"cancer cell lines; Homo sapiens, EFO-21, 72 h, EFO21, 72 h (Table 9)",> 50 µM
same,IC50,"cancer cell lines; Homo sapiens, EJ-28, 72 h, EJ28, 72 h (Table 9)",> 50 µM
same,IC50,"cancer cell lines; Homo sapiens, Granta-519, 72 h, GRANTA-519, 72 h (Table 9)",1.35 µM
same,IC50,"cancer cell lines; Homo sapiens, HCT-15, 72 h, HCT15, 72 h (Table 9)",> 50 µM
same,IC50,"cancer cell lines; Homo sapiens, HCT-116, 72 h, HCT116, 72 h (Table 9)",> 50 µM
same,IC50,"cancer cell lines; Homo sapiens, HEK293, 72 h, HEK293, 72 h (Table 9)",> 50 µM
same,IC50,"cancer cell lines; Homo sapiens, HL-60, 72 h, HL-60, 72 h (Table 9)",3.36 µM
same,IC50,"cancer cell lines; Homo sapiens, HT-29, 72 h, HT29, 72 h (Table 9)",> 50 µM
same,IC50,"cancer cell lines; Homo sapiens, HT-1080, 72 h, HT1080, 72 h (Table 9)",> 50 µM
same,IC50,"cancer cell lines; Homo sapiens, HeLa, 72 h, 72 h (Table 9)",> 50 µM
same,IC50,"cancer cell lines; Homo sapiens, HepG2, 72 h, HEPG2, 72 h (Table 9)",6.29 µM
same,IC50,"cancer cell lines; Homo sapiens, Hs-578T, 72 h, HS578T, 72 h (Table 9)",> 50 µM
same,IC50,"cancer cell lines; Homo sapiens, IGROV-1, 72 h, IGROV1, 72 h (Table 9)",> 50 µM
same,IC50,"cancer cell lines; Homo sapiens, IMR-90, 72 h, IMR90, 72 h (Table 9)",> 50 µM
same,IC50,"cancer cell lines; Homo sapiens, JEG-3, 72 h, JEG3, 72 h (Table 9)",> 50 µM
same,IC50,"cancer cell lines; Homo sapiens, JIMT-1, 72 h, JIMT1, 72 h (Table 9)",8.56 µM
same,IC50,"cancer cell lines; Homo sapiens, K562, 72 h, K-562, 72 h (Table 9)",> 50 µM
same,IC50,"cancer cell lines; Homo sapiens, Kasumi 1, 72 h, KASUMI-1, 72 h (Table 9)",18.7 µM
same,IC50,"cancer cell lines; Homo sapiens, L-363, 72 h, L-363, 72 h (Table 9)",> 50 µM
same,IC50,"cancer cell lines; Homo sapiens, LoVo, 72 h, 72 h (Table 9)",> 50 µM
same,IC50,"cancer cell lines; Homo sapiens, MCF7, 72 h, MCF7, 72 h (Table 9)",> 50 µM
same,IC50,"cancer cell lines; Homo sapiens, MDA-MB-231, 72 h, MDAMB231, 72 h (Table 9)",5.38 µM
same,IC50,"cancer cell lines; Homo sapiens, MDA-MB-435, 72 h, MDAMB435, 72 h (Table 9)",> 50 µM
same,IC50,"cancer cell lines; Homo sapiens, MDA-MB-436, 72 h, MDAMB436, 72 h (Table 9)",> 50 µM
same,IC50,"cancer cell lines; Homo sapiens, MDA-MB-468, 72 h, MDAMB468, 72 h (Table 9)",> 50 µM
same,IC50,"cancer cell lines; Homo sapiens, MG-63, 72 h, MG63, 72 h (Table 9)",> 50 µM
same,IC50,"cancer cell lines; Homo sapiens, MHH-ES-1, 72 h, MHHES1, 72 h (Table 9)",1.96 µM
same,IC50,"cancer cell lines; Homo sapiens, MIA PaCa-2, 72 h, MIAPACA2, 72 h (Table 9)",> 50 µM
same,IC50,"cancer cell lines; Homo sapiens, MINO, 72 h, 72 h (Table 9)",4.93 µM
same,IC50,"cancer cell lines; Homo sapiens, MV4-11, 72 h, MV4-11, 72 h (Table 9)",> 50 µM
same,IC50,"cancer cell lines; Homo sapiens, NCI-H23, 72 h, NCI-H23, 72 h (Table 9)",> 50 µM
same,IC50,"cancer cell lines; Homo sapiens, NCI-H82, 72 h, NCIH82, 72 h (Table 9)",> 50 µM
same,IC50,"cancer cell lines; Homo sapiens, NCI-H292, 72 h, NCIH292, 72 h (Table 9)",4.68 µM
same,IC50,"cancer cell lines; Homo sapiens, NCI-H460, 72 h, NCIH460, 72 h (Table 9)",> 50 µM
same,IC50,"cancer cell lines; Homo sapiens, OVCAR-3, 72 h, OVCAR3, 72 h (Table 9)",> 50 µM
same,IC50,"cancer cell lines; Homo sapiens, OVCAR-4, 72 h, OVCAR4, 72 h (Table 9)",> 50 µM
same,IC50,"cancer cell lines; Homo sapiens, PANC-1, 72 h, PANC1, 72 h (Table 9)",> 50 µM
same,IC50,"cancer cell lines; Homo sapiens, PLC-PRF-5, 72 h, PLCPRF5, 72 h (Table 9)",> 50 µM
same,IC50,"cancer cell lines; Homo sapiens, Panc1005, 72 h, PANC1005, 72 h (Table 9)",> 50 µM
same,IC50,"cancer cell lines; Homo sapiens, Ramos, 72 h, 72 h (Table 9)",1.96 µM
same,IC50,"cancer cell lines; Homo sapiens, SAOS-2, 72 h, SAOS2, 72 h (Table 9)",> 50 µM
same,IC50,"cancer cell lines; Homo sapiens, SF-268, 72 h, SF268, 72 h (Table 9)",> 50 µM
same,IC50,"cancer cell lines; Homo sapiens, SF-295, 72 h, SF295, 72 h (Table 9)",> 50 µM
same,IC50,"cancer cell lines; Homo sapiens, SK-BR-3, 72 h, SKBR3, 72 h (Table 9)",3.47 µM
same,IC50,"cancer cell lines; Homo sapiens, SK-HEP1, 72 h, SKHEP1, 72 h (Table 9)",> 50 µM
same,IC50,"cancer cell lines; Homo sapiens, SK-LMS-1, 72 h, SKLMS1, 72 h (Table 9)",> 50 µM
same,IC50,"cancer cell lines; Homo sapiens, SK-MEL-5, 72 h, SKMEL5, 72 h (Table 9)",> 50 µM
same,IC50,"cancer cell lines; Homo sapiens, SK-MEL-28, 72 h, SKMEL28, 72 h (Table 9)",> 50 µM
same,IC50,"cancer cell lines; Homo sapiens, SK-N-AS, 72 h, SKNAS, 72 h (Table 9)",> 50 µM
same,IC50,"cancer cell lines; Homo sapiens, SK-N-SH, 72 h, SKNSH, 72 h (Table 9)",6.99 µM
same,IC50,"cancer cell lines; Homo sapiens, SK-OV-3, 72 h, SKOV3, 72 h (Table 9)",> 50 µM
same,IC50,"cancer cell lines; Homo sapiens, SNB-75, 72 h, SNB75, 72 h (Table 9)",> 50 µM
same,IC50,"cancer cell lines; Homo sapiens, SU-DHL10, 72 h, SU-DHL-10, 72 h (Table 9)",> 50 µM
same,IC50,"cancer cell lines; Homo sapiens, SU-DHL-6, 72 h, SU-DHL-6, 72 h (Table 9)",4.2 µM
same,IC50,"cancer cell lines; Homo sapiens, SW-620, 72 h, SW620, 72 h (Table 9)",> 50 µM
same,IC50,"cancer cell lines; Homo sapiens, TE-671, 72 h, TE671, 72 h (Table 9)",> 50 µM
same,IC50,"cancer cell lines; Homo sapiens, THP-1, 72 h, THP-1, 72 h (Table 9)",2.04 µM
same,IC50,"cancer cell lines; Homo sapiens, U2OS, 72 h, 72 h (Table 9)",> 50 µM
same,IC50,"cancer cell lines; Homo sapiens, U-87 MG, 72 h, U87MG, 72 h (Table 9)",18.5 µM
same,IC50,"cancer cell lines; Homo sapiens, UMUC3, 72 h, UMUC3, 72 h (Table 9)",> 50 µM
same,IC50,"cancer cell lines; Homo sapiens, UO-31, 72 h, UO31, 72 h (Table 9)",11.2 µM
same,IC50,"cancer cell lines; Homo sapiens, WSU-NHL, 72 h, 72 h (Table 9)",2.46 µM
same,IC50,"cancer cell lines; NCI-H358M, 72 h, NCIH358M, 72 h (Table 9)",4.54 µM
same,IC50,"cancer cell lines; PBMC, 72 h, 72 h (Table 9)",> 50 µM
same,IC50,"cancer cell lines; RD-ES, 72 h, RDES, 72 h (Table 9)",> 50 µM
